From US10335453B2, “Compositions and methods for improving sexual function” (Nymox Corporation, priority 2017, dated 2019)
Peptide text beside a SMILES is read from it.

Legend:
prostate gland = conditions: human, in vivo; cited from earlier work
BPH patients [1] = assay: Example 4: proportion with no worsening or improvement in SFQ, two NX-1207 injections vs PBS followed by one NX-1207 injection; set-up: species or system human; conditions: in vivo
Description: One hundred and fifty (150) BPH patients with no prior history of any conventional approved medical or surgical treatment (“treatment naïve”) for BPH were given an intraprostatic injection of either (a) NX-1207 (2.5 mg) in phosphate buffered saline pH 7.2 (“PBS”) (n=83) or (b) PBS alone (n=67), under double-blind conditions by a urologist in an office setting under ultrasound guidance. All patients were followed for a period of 12.6-51.1 months and then treated by a second open-label injection of NX-1207 (2.5 mg) in PBS. Prior to their treatment each patient's sexual function was assessed by history and each patient completed a Sexual Function Questionnaire (“SFQ”) which scored from 0 to 12 points the degree to which the patient considered they had any problems with 1. lack of sex drive, 2. ability to get and keep an erection, and 3. problems with ejaculation, (Problem Assessment Scale of the Brief Male Sexual Function Inventory). A higher score indicates improvement with a better sexual functional self-assessment and less of a sexual problem; a lower score indicates worsening with more of a sexual problem. Many approved BPH medications and treatments are associated with lower scores. The SFQ was subsequently re-administered 6 months post second treatment. […]

[2] = test system: BPH patients with significant sexual problems; assay: Example 2: SFQ, treatment naïve BPH patients with significant sexual problems (baseline SFQ<=3), one intraprostatic injection, 12 months; format: in vivo, human; conditions: at 12 months
Description: One hundred twenty three (123) BPH patients with significant sexual problems and with no prior history of any conventional approved medical or surgical treatment (“treatment naïve”) for BPH were given an intraprostatic injection of either (a) NX-1207 (2.5 mg) in phosphate buffered saline pH 7.2 (“PBS”) (n=75) or (b) PBS alone (n=48), under double-blind conditions by a urologist in an office setting under ultrasound guidance. These patients were followed for 12 months after treatment and their progress was monitored by urological investigations. Prior to their treatment each patient's sexual function was assessed by history and each patient completed a Sexual Function Questionnaire (“SFQ”) which scored from 0 to 12 points the degree to which the patient considered they had any problems with 1. lack of sex drive, 2. ability to get and keep an erection, and 3. problems with ejaculation; (Problem Assessment Scale of the Brief Male Sexual Function Inventory). A higher score indicates improvement with a better sexual functional self-assessment and less of a sexual problem; a lower score indicates worsening with more of a sexual problem. Many approved BPH medications and treatments, and conditions are associated with lower scores. All 123 BPH patients in this group had baseline pre-treatment SFQ scores<=3 points indicating significant sexual problems. […]

patients with BPH = assay: Example 1: Sexual Function Questionnaire (SFQ), treatment naïve BPH patients, one intraprostatic injection, 12 months follow-up; format: in vivo, human; conditions: at 12 months
Description: Three hundred and seventy (370) patients with BPH and with no prior history of any conventional approved medical or surgical treatment (“treatment naïve”) for BPH were given an intraprostatic injection of either (a) NX-1207 (2.5 mg) in phosphate buffered saline pH 7.2 (“PBS”) (n=213) or (b) PBS alone (n=157), under double-blind conditions by a urologist in an office setting under ultrasound guidance. These patients were followed for 12 months after treatment and their progress was monitored by urological investigations. Prior to their treatment each patient's sexual function was assessed by history and each patient completed a Sexual Function Questionnaire (“SFQ”) which scored from 0 to 12 points the degree to which the patient considered they had any problems with 1. lack of sex drive, 2. ability to get and keep an erection, and 3. problems with ejaculation, (Problem Assessment Scale of the Brief Male Sexual Function Inventory). A higher score indicates improvement with a better sexual functional self-assessment and less of a sexual problem; a lower score indicates worsening with more of a sexual problem. Many approved BPH medications and treatments are associated with lower scores. The SFQ was subsequently re-administered 12 months post-treatment. The difference from baseline score in the SFQ was compared in NX-1207 patients vs results in patients who received PBS alone.

BPH patients [3] = assay: Example 6: proportion of treatment-naive BPH patients with SFQ<=3, NX-1207 vs PBS, 12.6-51.1 months; format: in vivo, human; conditions: at 12.6-51.1 months
Description: Three hundred twenty four (324) BPH patients were given an intraprostatic injection of either (a) NX-1207 (2.5 mg) in phosphate buffered saline pH 7.2 (“PBS”) (n=189) or (b) PBS alone (n=135), under double-blind conditions by a urologist in an office setting under ultrasound guidance. These patients were followed for 12.6-51.1 months after treatment and their progress was monitored by urological investigations. Prior to their treatment each patient's sexual function was assessed by history and each patient completed a Sexual Function Questionnaire (“SFQ”) which scored from 0 to 12 points the degree to which the patient considered they had any problems with 1. lack of sex drive, 2. ability to get and keep an erection, and 3. problems with ejaculation; (Problem Assessment Scale of the Brief Male Sexual Function Inventory). A higher score indicates improvement with a better sexual functional self-assessment and less of a sexual problem; a lower score indicates worsening with more of a sexual problem. Many approved BPH medications and treatments are associated with lower scores. Eighty nine (89) BPH patients in this group had baseline pre-treatment SFQ scores<=3 points indicating significant sexual problems. The SFQ was subsequently re-administered 12.6-51.1 months post-treatment. […]

BPH patients [4] = assay: Example 3: SFQ mean change, treatment naïve BPH patients, two NX-1207 injections vs PBS followed by one NX-1207 injection; conditions: human, in vivo
Description: One hundred and fifty six (156) BPH patients with no prior history of any conventional approved medical or surgical treatment (“treatment naïve”) for BPH were given an intraprostatic injection of either (a) NX-1207 (2.5 mg) in phosphate buffered saline pH 7.2 (“PBS”) (n=88) or (b) PBS alone (n=68), under double-blind conditions by a urologist in an office setting under ultrasound guidance. All patients were followed for a period of 12.6-51.1 months and then treated by a second open-label injection of NX-1207 (2.5 mg) in PBS. Prior to their treatment each patient's sexual function was assessed by history and each patient completed a Sexual Function Questionnaire (“SFQ”) which scored from 0 to 12 points the degree to which the patient considered they had any problems with 1. lack of sex drive, 2. ability to get and keep an erection, and 3. problems with ejaculation, (Problem Assessment Scale of the Brief Male Sexual Function Inventory). A higher score indicates improvement with a better sexual functional self-assessment and less of a sexual problem; a lower score indicates worsening with more of a sexual problem. Many approved BPH medications and treatments are associated with lower scores. The SFQ was subsequently re-administered 6 months post second treatment. […]

BPH patients [5] = assay: Example 7: proportion of BPH patients with SFQ<=3, NX-1207 in treatment naive vs previously treated patients; format: in vivo, human; conditions: at 12.6-51.1 months
Description: Three hundred and twenty four (324) BPH patients were given an intraprostatic injection of either (a) NX-1207 (2.5 mg) in phosphate buffered saline pH 7.2 (“PBS”) (n=189) or (b) PBS alone (n=135), under double-blind conditions by a urologist in an office setting under ultrasound guidance. These patients were followed for 12.6-51.1 months after treatment and their progress was monitored by urological investigations. Prior to their treatment each patient's sexual function was assessed by history and each patient completed a Sexual Function Questionnaire (“SFQ”) which scored from 0 to 12 points the degree to which the patient considered they had any problems with 1. lack of sex drive, 2. ability to get and keep an erection, and 3. problems with ejaculation; (Problem Assessment Scale of the Brief Male Sexual Function Inventory). A higher score indicates improvement with a better sexual functional self-assessment and less of a sexual problem; a lower score indicates worsening with more of a sexual problem. Many approved BPH medications and treatments are associated with lower scores. Eighty nine (89) BPH patients in this group had baseline pre-treatment SFQ scores<=3 points indicating significant sexual problems. The SFQ was subsequently re-administered 12.6-51.1 months post-treatment. […]

BPH patients [6] = assay: Example 5: SFQ long-term mean change, treatment naive BPH patients, one injection, 12.6-51.1 months; format: in vivo, human; conditions: at 12.6-51.1 months
Description: One hundred and fifty (150) BPH patients with no prior history of any conventional approved medical or surgical treatment (“treatment naive”) for BPH were given an intraprostatic injection of either (a) (2.5 mg) NX-1207 (2.5 mg) in phosphate buffered saline pH 7.2 (“PBS”) (n=83) or (b) PBS alone (n=67) under double-blind conditions by a urologist in an office setting under ultrasound guidance. These patients were followed for 12.6-51.1 months after treatment and their progress was monitored by urological investigations. Prior to their treatment each patient's sexual function was assessed by history and each patient completed a Sexual Function Questionnaire (“SFQ”) which scored from 0 to 12 points the degree to which the patient considered they had any problems with 1. lack of sex drive, 2. ability to get and keep an erection, and 3. problems with ejaculation; (Problem Assessment Scale of the Brief Male Sexual Function Inventory). A higher score indicates improvement with a better sexual functional self-assessment and less of a sexual problem; a lower score indicates worsening with more of a sexual problem. Many approved BPH medications and treatments are associated with lower scores. The SFQ was subsequently re-administered 12.6-51.1 months post-treatment.

## CC[C@H](C)[C@H](N)C(=O)N[C@@H](CC(=O)O)C(=O)N[C@@H](CCC(N)=O)C(=O)N[C@@H](CCC(N)=O)C(=O)N[C@H](C(=O)N[C@@H](CC(C)C)C(=O)N[C@@H](CO)C(=O)N[C@@H](CCCNC(=N)N)C(=O)N[C@H](C(=O)N[C@@H](CCCCN)C(=O)N[C@@H](CC(C)C)C(=O)N[C@@H](CCC(=O)O)C(=O)N[C@H](C(=O)N[C@@H](CCCCN)C(=O)N[C@@H](CCCNC(=N)N)C(=O)N[C@@H](CS)C(=O)N[C@@H](CC(C)C)C(=O)O)[C@@H](C)CC)[C@@H](C)CC)C(C)C [SEQ ID NO: 66, IDQQVLSRIKLEIKRCL] (H-IDQQVLSRIKLEIKRCL-OH)
Prostate gland
  safety profile: excellent safety profile
BPH patients [1]
  sexual adverse events attributable to NX-1207: no significant incidence of sexual adverse events
[2]
  sexual adverse events attributable to NX-1207: no significant incidence of sexual adverse events
Patients with BPH
  sexual adverse events attributable to NX-1207: no significant incidence of sexual adverse events
BPH patients [3]
  sexual adverse events attributable to NX-1207: no significant incidence of sexual adverse events
BPH patients [4]
  sexual adverse events attributable to NX-1207: no significant incidence of sexual adverse events
BPH patients [5]
  sexual adverse events attributable to NX-1207: no incidence of significant sexual adverse events
BPH patients [6]
  sexual adverse events attributable to NX-1207: no significant incidence of sexual adverse events
